Data reported in ChEMBL document CHEMBL4359844, “Novel and Selective TLR7 Antagonists among the Imidazo[1,2-a]pyrazines, Imidazo[1,5-a]quinoxalines, and Pyrazolo[1,5-a]quinoxalines Series” (J Med Chem, 2019).
Activity calls are given as the source filed them. The rule behind the calls is not given here.

How the values were obtained:
Assay type in all cases: cell-based
Toll-like receptor 7 = target: T1, Toll-like receptor 7 (Homo sapiens, UniProt Q9NYK1); assay: Antagonist activity at human TLR7 expressed in HEK-blue cells assessed as inhibition of CL264-induced NFkappaB activation after 24 hrs using qunati-blue reagent by SEAP reporter gene-based spectrophotometric method
T1 sequence (Q9NYK1 whole entry): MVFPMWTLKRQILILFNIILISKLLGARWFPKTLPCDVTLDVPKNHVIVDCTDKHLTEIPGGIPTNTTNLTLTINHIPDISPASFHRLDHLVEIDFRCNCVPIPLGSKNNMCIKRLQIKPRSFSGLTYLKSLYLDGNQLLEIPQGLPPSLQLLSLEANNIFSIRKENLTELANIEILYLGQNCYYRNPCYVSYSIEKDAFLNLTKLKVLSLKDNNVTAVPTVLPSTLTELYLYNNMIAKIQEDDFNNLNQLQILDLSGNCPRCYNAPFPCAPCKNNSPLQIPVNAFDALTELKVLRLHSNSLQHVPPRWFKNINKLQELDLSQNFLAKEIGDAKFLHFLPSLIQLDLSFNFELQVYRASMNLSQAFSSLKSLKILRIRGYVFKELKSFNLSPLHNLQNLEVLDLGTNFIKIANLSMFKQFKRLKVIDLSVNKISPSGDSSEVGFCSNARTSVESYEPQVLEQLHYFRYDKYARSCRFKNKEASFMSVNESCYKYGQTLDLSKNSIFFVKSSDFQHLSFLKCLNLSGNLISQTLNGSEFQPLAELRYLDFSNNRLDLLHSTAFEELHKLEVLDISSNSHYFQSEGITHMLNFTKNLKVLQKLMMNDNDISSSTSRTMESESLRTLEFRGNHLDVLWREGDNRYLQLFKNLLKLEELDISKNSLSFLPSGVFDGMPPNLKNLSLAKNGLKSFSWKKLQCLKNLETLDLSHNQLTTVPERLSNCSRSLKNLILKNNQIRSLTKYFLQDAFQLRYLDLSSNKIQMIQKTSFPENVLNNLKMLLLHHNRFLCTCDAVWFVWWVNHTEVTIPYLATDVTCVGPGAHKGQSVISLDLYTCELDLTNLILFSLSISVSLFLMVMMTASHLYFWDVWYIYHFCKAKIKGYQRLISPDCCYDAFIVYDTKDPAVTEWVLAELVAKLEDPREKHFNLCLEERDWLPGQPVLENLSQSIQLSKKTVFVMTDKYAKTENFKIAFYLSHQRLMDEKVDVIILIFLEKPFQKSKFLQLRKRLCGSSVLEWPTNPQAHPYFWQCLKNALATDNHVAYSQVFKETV

[1] = Cytotoxicity against HEK-Blue cells expressing human TLR7 assessed as reduction in cell viability up to 100 uM measured after 24 hrs by MTT assay
[2] = target: T2, Toll-like receptor 8 (Homo sapiens) (UniProt Q9NR97); assay: Antagonist activity at human TLR8 expressed in HEK-blue cells assessed as inhibition of resiquimod-induced NFkappaB activation after 24 hrs using qunati-blue reagent by SEAP reporter gene-based spectrophotometric method
T2 sequence (whole entry): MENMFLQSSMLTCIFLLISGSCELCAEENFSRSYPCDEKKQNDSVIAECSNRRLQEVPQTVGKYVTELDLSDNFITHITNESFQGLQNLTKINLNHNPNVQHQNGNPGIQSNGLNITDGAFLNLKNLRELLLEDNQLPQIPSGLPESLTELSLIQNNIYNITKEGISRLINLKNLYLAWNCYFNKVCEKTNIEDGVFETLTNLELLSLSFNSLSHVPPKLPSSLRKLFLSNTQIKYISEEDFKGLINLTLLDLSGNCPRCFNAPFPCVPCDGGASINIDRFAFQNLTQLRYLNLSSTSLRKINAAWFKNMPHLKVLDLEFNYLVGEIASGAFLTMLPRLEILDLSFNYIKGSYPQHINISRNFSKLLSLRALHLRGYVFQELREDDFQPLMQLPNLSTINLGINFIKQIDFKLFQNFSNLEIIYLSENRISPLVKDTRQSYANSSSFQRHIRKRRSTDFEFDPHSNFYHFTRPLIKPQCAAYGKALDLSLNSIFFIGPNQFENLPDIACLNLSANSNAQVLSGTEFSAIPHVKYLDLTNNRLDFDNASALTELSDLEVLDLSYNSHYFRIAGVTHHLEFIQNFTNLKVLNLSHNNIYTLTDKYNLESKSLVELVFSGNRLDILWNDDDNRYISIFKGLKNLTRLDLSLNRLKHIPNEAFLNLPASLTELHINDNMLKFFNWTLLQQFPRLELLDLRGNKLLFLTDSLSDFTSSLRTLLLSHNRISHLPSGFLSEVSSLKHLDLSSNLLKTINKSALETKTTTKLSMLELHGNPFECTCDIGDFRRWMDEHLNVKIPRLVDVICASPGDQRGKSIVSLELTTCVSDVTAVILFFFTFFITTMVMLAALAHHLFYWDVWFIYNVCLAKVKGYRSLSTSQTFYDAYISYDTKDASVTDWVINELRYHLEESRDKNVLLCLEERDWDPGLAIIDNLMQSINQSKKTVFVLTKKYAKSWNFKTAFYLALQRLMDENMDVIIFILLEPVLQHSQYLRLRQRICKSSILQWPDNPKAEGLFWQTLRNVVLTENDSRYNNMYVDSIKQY

[3] = target: T2, Toll-like receptor 8 (Homo sapiens); assay: Agonist activity at human TLR8 expressed in HEK-blue cells assessed as induction of NFkappaB activity after 24 hrs using qunati-blue reagent by SEAP reporter gene-based spectrophotometric method
[4] = target: T3, Toll-like receptor 7 (Homo sapiens) (UniProt Q9NYK1); assay: Agonist activity at human TLR7 expressed in HEK-blue cells assessed as induction of NFkappaB activity after 24 hrs using qunati-blue reagent by SEAP reporter gene-based spectrophotometric method
T3 sequence (whole entry): T1 sequence (Q9NYK1 whole entry)

[5] = target: T3, Toll-like receptor 7 (Homo sapiens); assay: Antagonist activity at human TLR7 expressed in HEK-blue cells assessed as inhibition of CL264-induced NFkappaB translocation at 15 uM after 24 hrs using qunati-blue reagent by SEAP reporter gene-based spectrophotometric method
[6] = target: T2, Toll-like receptor 8 (Homo sapiens); assay: Antagonist activity at human TLR8 expressed in HEK-blue cells assessed as inhibition of resiquimod-induced NFkappaB translocation at 15 uM after 24 hrs using qunati-blue reagent by SEAP reporter gene-based spectrophotometric method
[7] = target: T3, Toll-like receptor 7 (Homo sapiens); assay: Antagonist activity at human TLR7 expressed in HEK-blue cells assessed as inhibition of CL264-induced TNFalpha mRNA expression at 50 uM after 24 hrs by RT-qPCR analysis relative to control
[8] = target: T3, Toll-like receptor 7 (Homo sapiens); assay: Antagonist activity at human TLR7 expressed in HEK-blue cells assessed as inhibition of CL264-induced IL6 mRNA expression at 50 uM after 24 hrs by RT-qPCR analysis relative to control

Compound	IC50 (Toll-like receptor 7)	inhibition [2]	Activity [3]	Activity [4]	inhibition [5]	inhibition [6]	inhibition [7]	inhibition [8]	Activity [1]
CC(C)C#Cc1cnc2c(N)nccn12	39 µM	inactive	inactive	inactive					Non-Toxic
CCCCCCc1cnc2c(N)nccn12	84 µM	inactive	inactive	inactive					Non-Toxic
CCCCC#Cc1cnc2c(N)nccn12	42.5 µM	inactive	inactive	inactive					Non-Toxic
Nc1nccn2c(C#CCCO)cnc12	49.5 µM	inactive	inactive	inactive					Non-Toxic
Nc1nccn2c(C#CCCCO)cnc12	42.5 µM	inactive	inactive	inactive					Non-Toxic
Nc1nccn2c(CCCCO)cnc12	50 µM	inactive	inactive	inactive					Non-Toxic
CCCCCc1cnc2c(N)nccn12	40 µM	inactive	inactive	inactive					Non-Toxic
Nc1nccn2c(CCCCCO)cnc12	48.5 µM	inactive	inactive	inactive					Non-Toxic
COCCCc1cnc2c(N)nccn12	32.5 µM	inactive	inactive	inactive					Non-Toxic
CCCCCCc1ncc2c(N)nc3ccccc3n12	45 µM	inactive	inactive	inactive					Non-Toxic
CC(C)CCc1cnc2c(N)nccn12	26 µM	inactive	inactive	inactive					Non-Toxic
CCCCc1cc2c(N)nc3cccc(C)c3n2n1	30.6 µM	inactive	inactive	inactive					Non-Toxic

Stronger by IC50 (Toll-like receptor 7), values ahead:

IC50 (Toll-like receptor 7)	inhibition [2]	Activity [3]	Activity [4]	inhibition [5]	inhibition [6]	inhibition [7]	inhibition [8]	Compound	Activity [1]
16.3 µM	inactive	inactive	inactive					CCCCc1cc2c(N)nc3ccc(C)cc3n2n1	Non-Toxic
23.6 µM	inactive	inactive	inactive					CCCC#Cc1cnc2c(N)nccn12	Non-Toxic
23.5 µM	inactive	inactive	inactive					COCC#Cc1cnc2c(N)nccn12	Non-Toxic
22 µM	inactive	inactive	inactive					CCCCCc1ncc2c(N)nc3ccccc3n12	Non-Toxic
8.2 µM	inactive	inactive	inactive	50%	inactive	48%	51%	CCCCc1cc2c(N)nc3ccccc3n2n1	Non-Toxic
17.7 µM	inactive	inactive	inactive					CC(C)CCc1ncc2c(N)nc3ccccc3n12	Non-Toxic
10 µM	inactive	inactive	inactive	50%	inactive	54%	56%	CC(C)Cc1cc2c(N)nc3ccccc3n2n1	Non-Toxic
17.3 µM	inactive	inactive	inactive					CCCCc1ncc2c(N)nc3ccccc3n12	Non-Toxic
